Experimental data taken from BigSolDB 2.1.

CCCCN(CCCC)CC(O)c1cc(Cl)cc2c1-c1ccc(Cl)cc1/C2=C/c1ccc(Cl)cc1 (stereo not given)
solubility (mole fraction)
Conditions	278.15 K	283.15 K	288.15 K	293.15 K	298.15 K	303.15 K	308.15 K	313.15 K	318.15 K	323.15 K
in ethanol	5.32e-05	7.11e-05	9.63e-05	0.000127	0.000158	0.000213	0.000265	0.000323	0.000401	0.000497
in ethyl acetate	0.00178	0.00233	0.00315	0.00409	0.00538	0.0069	0.009	0.0116	0.0151	0.0201
in methanol	1.34e-05	1.7e-05	2.27e-05	3.03e-05	3.81e-05	4.95e-05	6.28e-05	8.17e-05	0.000105	0.000136
in methyl acetate	0.000656	0.000903	0.00136	0.00186	0.00262	0.00364	0.00495	0.00669	0.00913	0.0126
in n-butanol	0.000137	0.000182	0.000281	0.00038	0.000493	0.00065	0.000851	0.00115	0.00147	0.00187
in n-butyl acetate	0.00423	0.00531	0.00672	0.00864	0.0108	0.0137	0.0175	0.0223	0.0285	0.0359
in n-heptanol	0.000337	0.000437	0.000586	0.000781	0.0011	0.00149	0.00193	0.00245	0.00339	0.0045
in n-hexanol	0.00021	0.000315	0.000477	0.000604	0.000886	0.00119	0.00171	0.00214	0.00289	0.00387
in n-octanol	0.000352	0.000474	0.00073	0.000945	0.00125	0.00172	0.00221	0.00298	0.00385	0.00516
in n-pentanol	0.000215	0.00028	0.000423	0.000555	0.000745	0.000968	0.0013	0.0017	0.0022	0.00288
in n-pentyl acetate	0.00474	0.00654	0.00846	0.011	0.0137	0.0168	0.0211	0.0252	0.0326	0.0406
in n-propanol	8.62e-05	0.000107	0.000145	0.00021	0.000279	0.000388	0.000502	0.000696	0.000967	0.00131
in n-propyl acetate	0.00281	0.00365	0.00485	0.00653	0.00838	0.0109	0.0139	0.018	0.0231	0.0304
